Results: PubChem BioAssay (NCI)
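Following 48 hours of exposure in 96-well plates, responses at five concentrations were used to interpolate endpoints linearly. GI50 is the concentration that inhibits growth by half. TGI: total growth inhibition.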

Experiments:
Test in all cases: NCI tumour cell line growth inhibition, 48 h; in the data active = GI50 below about 0.43 µM; inactive = the rest
786-0 renal = test system: 786-0 renal
A498 renal = test system: A498 renal
A549 NSCLC = test system: A549 NSCLC
ACHN renal = test system: ACHN renal
BT-549 breast = test system: BT-549 breast
DU-145 prostate = test system: DU-145 prostate
EKVX NSCLC = test system: EKVX NSCLC
HCC-2998 colon = test system: HCC-2998 colon
HCT-116 colon = test system: HCT-116 colon
HCT-15 colon = test system: HCT-15 colon
HL-60(TB) leukemia = test system: HL-60(TB) leukemia
HOP-62 NSCLC = test system: HOP-62 NSCLC
HOP-92 NSCLC = test system: HOP-92 NSCLC
HS 578T breast = test system: HS 578T breast
HT29 colon = test system: HT29 colon
IGROV1 ovarian = test system: IGROV1 ovarian
K-562 leukemia = test system: K-562 leukemia
KM12 colon = test system: KM12 colon
LOX IMVI melanoma = test system: LOX IMVI melanoma
M14 melanoma = test system: M14 melanoma
MALME-3M melanoma = test system: MALME-3M melanoma
MCF7 breast = test system: MCF7 breast
MDA-MB-231 breast = test system: MDA-MB-231 breast
MDA-MB-435 = test system: MDA-MB-435
MDA-N = test system: MDA-N
MOLT-4 leukemia = test system: MOLT-4 leukemia
NCI-H226 lung = test system: NCI-H226 lung
NCI-H460 lung = test system: NCI-H460 lung
NCI-H522 lung = test system: NCI-H522 lung
NCI/ADR-RES ovarian = test system: NCI/ADR-RES ovarian
OVCAR-3 ovarian = test system: OVCAR-3 ovarian
OVCAR-4 ovarian = test system: OVCAR-4 ovarian
OVCAR-5 ovarian = test system: OVCAR-5 ovarian
OVCAR-8 ovarian = test system: OVCAR-8 ovarian
PC-3 prostate = test system: PC-3 prostate
RPMI-8226 leukemia = test system: RPMI-8226 leukemia
SF-268 CNS = test system: SF-268 CNS
SF-295 CNS = test system: SF-295 CNS
SF-539 CNS = test system: SF-539 CNS
SK-MEL-2 melanoma = test system: SK-MEL-2 melanoma
SK-MEL-28 melanoma = test system: SK-MEL-28 melanoma
SK-OV-3 ovarian = test system: SK-OV-3 ovarian
SN12C renal = test system: SN12C renal
SNB-19 CNS = test system: SNB-19 CNS
SNB-75 CNS = test system: SNB-75 CNS
SR leukemia = test system: SR leukemia
SW-620 colon = test system: SW-620 colon
T-47D breast = test system: T-47D breast
TK-10 renal = test system: TK-10 renal
U251 CNS = test system: U251 CNS
UACC-257 melanoma = test system: UACC-257 melanoma
UACC-62 melanoma = test system: UACC-62 melanoma
UO-31 renal = test system: UO-31 renal
CAKI-1 renal = test system: CAKI-1 renal
CCRF-CEM leukemia = test system: CCRF-CEM leukemia
COLO 205 colon = test system: COLO 205 colon
NCI-H23 lung = test system: NCI-H23 lung
RXF 393 renal = test system: RXF 393 renal
SK-MEL-5 melanoma = test system: SK-MEL-5 melanoma

COc1ccc(Cc2cc(Cc3ccc(OC)cc3)cc(Cc3ccc(OC)cc3)c2)cc1
> 100 µM: TGI (786-0 renal) | TGI (A498 renal) | TGI (A549 NSCLC) | TGI (ACHN renal) | TGI (BT-549 breast) | TGI (DU-145 prostate) | TGI (EKVX NSCLC) | TGI (HCC-2998 colon) | TGI (HCT-116 colon) | TGI (HCT-15 colon) | TGI (HL-60(TB) leukemia) | TGI (HOP-62 NSCLC) | TGI (HOP-92 NSCLC) | TGI (HS 578T breast) | TGI (HT29 colon) | TGI (IGROV1 ovarian) | TGI (K-562 leukemia) | TGI (KM12 colon) | TGI (LOX IMVI melanoma) | TGI (M14 melanoma) | TGI (MALME-3M melanoma) | TGI (MCF7 breast) | TGI (MDA-MB-231 breast) | TGI (MDA-MB-435) | TGI (MDA-N) | TGI (MOLT-4 leukemia) | TGI (NCI-H226 lung) | TGI (NCI-H460 lung) | TGI (NCI-H522 lung) | TGI (NCI/ADR-RES ovarian) | TGI (OVCAR-3 ovarian) | TGI (OVCAR-4 ovarian) | TGI (OVCAR-5 ovarian) | TGI (OVCAR-8 ovarian) | TGI (PC-3 prostate) | TGI (RPMI-8226 leukemia) | TGI (SF-268 CNS) | TGI (SF-295 CNS) | TGI (SF-539 CNS) | TGI (SK-MEL-2 melanoma) | TGI (SK-MEL-28 melanoma) | TGI (SK-OV-3 ovarian) | TGI (SN12C renal) | TGI (SNB-19 CNS) | TGI (SNB-75 CNS) | TGI (SR leukemia) | TGI (SW-620 colon) | TGI (T-47D breast) | TGI (TK-10 renal) | TGI (U251 CNS) | TGI (UACC-257 melanoma) | TGI (UACC-62 melanoma) | TGI (UO-31 renal)

O=C(O)CCC(c1ccccc1)(c1ccccc1)c1ccccc1
inactive: GI50 (BT-549 breast) 80.1 µM | GI50 (CAKI-1 renal) 66.4 µM | GI50 (HCT-116 colon) 43.6 µM | GI50 (IGROV1 ovarian) 71.2 µM | GI50 (NCI-H522 lung) 55.3 µM | GI50 (RXF 393 renal) 49.5 µM | GI50 (SNB-75 CNS) > 100 µM
> 100 µM: TGI (786-0 renal) | TGI (A498 renal) | TGI (A549 NSCLC) | TGI (ACHN renal) | TGI (BT-549 breast) | TGI (CAKI-1 renal) | TGI (CCRF-CEM leukemia) | TGI (DU-145 prostate) | TGI (EKVX NSCLC) | TGI (HCC-2998 colon) | TGI (HCT-116 colon) | TGI (HCT-15 colon) | TGI (HOP-62 NSCLC) | TGI (HS 578T breast) | TGI (HT29 colon) | TGI (IGROV1 ovarian) | TGI (K-562 leukemia) | TGI (KM12 colon) | TGI (LOX IMVI melanoma) | TGI (M14 melanoma) | TGI (MALME-3M melanoma) | TGI (MDA-MB-231 breast) | TGI (MDA-MB-435) | TGI (MDA-N) | TGI (NCI-H226 lung) | TGI (NCI-H23 lung) | TGI (NCI-H522 lung) | TGI (NCI/ADR-RES ovarian) | TGI (OVCAR-4 ovarian) | TGI (OVCAR-5 ovarian) | TGI (OVCAR-8 ovarian) | TGI (PC-3 prostate) | TGI (RXF 393 renal) | TGI (SF-295 CNS) | TGI (SF-539 CNS) | TGI (SK-MEL-28 melanoma) | TGI (SK-MEL-5 melanoma) | TGI (SK-OV-3 ovarian) | TGI (SN12C renal) | TGI (SNB-19 CNS) | TGI (SNB-75 CNS) | TGI (SW-620 colon) | TGI (TK-10 renal) | TGI (U251 CNS) | TGI (UACC-257 melanoma) | TGI (UACC-62 melanoma) | TGI (UO-31 renal)
> 84 µM: TGI (SK-MEL-2 melanoma)
> 92.2 µM: TGI (MOLT-4 leukemia)
> 89 µM: TGI (SR leukemia)
> 73.9 µM: TGI (HOP-92 NSCLC)
97.6 µM: TGI (COLO 205 colon)
> 60.3 µM: TGI (T-47D breast)
> 94.3 µM: TGI (RPMI-8226 leukemia)
> 92.9 µM: TGI (SF-268 CNS)
> 90.6 µM: TGI (HL-60(TB) leukemia)
> 71 µM: TGI (MCF7 breast)
> 69.6 µM: TGI (OVCAR-3 ovarian)
> 91.2 µM: TGI (NCI-H460 lung)

CSc1c(C#N)c(=O)n(N)c2c1c(C)nn2-c1ccccc1
39.2 µM: TGI (MCF7 breast)
> 100 µM: TGI (786-0 renal) | TGI (BT-549 breast) | TGI (DU-145 prostate) | TGI (HCC-2998 colon) | TGI (HS 578T breast) | TGI (KM12 colon) | TGI (M14 melanoma) | TGI (MDA-MB-435) | TGI (MDA-N) | TGI (NCI-H460 lung) | TGI (NCI-H522 lung) | TGI (OVCAR-5 ovarian) | TGI (SF-268 CNS) | TGI (SK-MEL-28 melanoma) | TGI (SN12C renal) | TGI (SNB-19 CNS) | TGI (SW-620 colon) | TGI (TK-10 renal) | TGI (U251 CNS)
56.2 µM: TGI (HCT-116 colon)
63.3 µM: TGI (SK-MEL-2 melanoma)
71.8 µM: TGI (SR leukemia)
52.7 µM: TGI (NCI-H23 lung)
28.7 µM: TGI (SK-MEL-5 melanoma)
81 µM: TGI (T-47D breast)
65.4 µM: TGI (HT29 colon)
85.4 µM: TGI (HCT-15 colon) | TGI (SNB-75 CNS)
76.7 µM: TGI (PC-3 prostate)
96.1 µM: TGI (OVCAR-4 ovarian)
70.2 µM: TGI (MALME-3M melanoma)
85.1 µM: TGI (MOLT-4 leukemia)
94.5 µM: TGI (HL-60(TB) leukemia)
57.9 µM: TGI (MDA-MB-231 breast)
77 µM: TGI (OVCAR-3 ovarian)
62.9 µM: TGI (NCI/ADR-RES ovarian)
69.1 µM: TGI (RXF 393 renal)
70 µM: TGI (NCI-H226 lung)
63.9 µM: TGI (RPMI-8226 leukemia)
76.3 µM: TGI (CCRF-CEM leukemia)
32.5 µM: TGI (COLO 205 colon)
75.8 µM: TGI (UACC-62 melanoma)
54 µM: TGI (OVCAR-8 ovarian)
55.5 µM: TGI (SF-539 CNS)
65.8 µM: TGI (A498 renal)
61.6 µM: TGI (A549 NSCLC)
87 µM: TGI (K-562 leukemia)
60.9 µM: TGI (UACC-257 melanoma)
52.6 µM: TGI (LOX IMVI melanoma)
78 µM: TGI (EKVX NSCLC)
43 µM: TGI (CAKI-1 renal)
51.9 µM: TGI (UO-31 renal)
93.8 µM: TGI (SK-OV-3 ovarian)

[N-]=[N+]=NC1C(O)C(CO)OC1n1ccc(N)nc1=O (stereo unspecified)
> 581 µM: TGI (HCC-2998 colon)
> 564 µM: TGI (MDA-MB-231 breast)
> 174 µM: TGI (MOLT-4 leukemia)
186 µM: TGI (M14 melanoma)
615 µM: TGI (SN12C renal)
> 625 µM: TGI (786-0 renal) | TGI (A498 renal) | TGI (A549 NSCLC) | TGI (ACHN renal) | TGI (BT-549 breast) | TGI (CAKI-1 renal) | TGI (DU-145 prostate) | TGI (EKVX NSCLC) | TGI (HCT-116 colon) | TGI (HCT-15 colon) | TGI (HOP-62 NSCLC) | TGI (HOP-92 NSCLC) | TGI (HS 578T breast) | TGI (HT29 colon) | TGI (IGROV1 ovarian) | TGI (K-562 leukemia) | TGI (KM12 colon) | TGI (LOX IMVI melanoma) | TGI (MALME-3M melanoma) | TGI (MCF7 breast) | TGI (MDA-MB-435) | TGI (MDA-N) | TGI (NCI-H226 lung) | TGI (NCI-H23 lung) | TGI (NCI-H460 lung) | TGI (NCI-H522 lung) | TGI (NCI/ADR-RES ovarian) | TGI (OVCAR-4 ovarian) | TGI (OVCAR-5 ovarian) | TGI (OVCAR-8 ovarian) | TGI (PC-3 prostate) | TGI (RPMI-8226 leukemia) | TGI (SF-268 CNS) | TGI (SF-295 CNS) | TGI (SK-MEL-28 melanoma) | TGI (SK-MEL-5 melanoma) | TGI (SK-OV-3 ovarian) | TGI (SNB-19 CNS) | TGI (SNB-75 CNS) | TGI (SW-620 colon) | TGI (TK-10 renal) | TGI (U251 CNS) | TGI (UACC-257 melanoma)
> 189 µM: TGI (T-47D breast)
25.3 µM: TGI (HL-60(TB) leukemia)
> 568 µM: TGI (COLO 205 colon)
296 µM: TGI (SR leukemia)
> 595 µM: TGI (OVCAR-3 ovarian)
> 602 µM: TGI (RXF 393 renal)
350 µM: TGI (UACC-62 melanoma)
455 µM: TGI (SF-539 CNS)
> 585 µM: TGI (SK-MEL-2 melanoma)
616 µM: TGI (UO-31 renal)
